# Measurements taken from ChEMBL document CHEMBL1127939, “Non-peptide fibrinogen receptor antagonists. 3. design and discovery of a centrally constrained inhibitor” (Bioorg Med Chem Lett, 1994).
# Calls of active or inactive are those of the source. The rule behind the calls is not given here.
# Assays:
# [1] = biological target: Integrin alpha-IIb/beta-3 (Homo sapiens) (UniProt P05106+P08514); test: Inhibition of human umbilical vein endothelial cell (HUVEC) adhesion to fibrinogen at 300 uM (No inhibition); type: cell-based
# [2] = biological target: Integrin alpha-5/beta-1 (Homo sapiens) (UniProt P05556+P08648); test: Inhibition of human umbilical vein endothelial cell (HUVEC) adhesion to fibronectin at 300 uM (No inhibition); type: cell-based
# [3] = test system: Canis familiaris; test: Ex vivo percent inhibition of platelet aggregation at oral dose of 4 mg/kg after 480 min; type: functional; settings: Canis lupus familiaris, 8 h
# [4] = test system: Canis familiaris; test: Ex vivo percent inhibition of platelet aggregation at oral dose of 2 mg/kg after 140 min; type: functional; settings: Canis lupus familiaris
# [5] = test system: HUVEC; test: Inhibition of human umbilical vein endothelial cell (HUVEC) adhesion to vitronectin at 300 uM (No inhibition); type: cell-based
structure (smiles),measurement,setting,value
O=C(O)CCNC(=O)c1ccc2c(c1)C(=O)N(CCC1CCNCC1)C2,inhibition,[1],inactive
same,inhibition,[2],inactive
same,inhibition in vivo at 4 mg/kg,[3],90%
same,inhibition in vivo at 2 mg/kg,[4],65%
same,inhibition,[5],inactive
